Measured values from PMC8151276, “An Integrated Approach toward NanoBRET Tracers for Analysis of GPCR Ligand Engagement” (Molecules, 2021).

Tests used:
GPR50 = target: T1, GPR50 (Homo sapiens, UniProt Q13585); assay: NanoBRET screen HiBiT-GPR50 in HEK293; type: binding
T1 construct: purchased Promega (in-house HiBiT-GPCR construct library, NanoBRET)
Experimental: (§1) Each tracer candidate was screened across the entire library of HiBiT-GPCR constructs using NanoBRET as the detection modality. As depicted in Figure 4A, the specificity of interactions was evaluated through decrease in BRET due to competitive displacement of a bound tracer by excess parental compound. Each tracer was analyzed for binding to each HiBiT-GPCR fusion in the absence and in the presence of competing parental compound. Briefly, HEK293 cells were transfected with HiBiT-GPCR constructs diluted into promoterless DNA to reduce expression and maximize translocation to the cell surface. Each tracer candidate was then screened at concentrations of 1 μM and 0.1 μM across cells expressing these fusions. Cells were treated for 1.5 h with tracer either alone or in the presence of 20 μM competing parental compound (i.e., control). BRET was measured upon addition of purified LgBiT and subsequent complementation with HiBiT genetically fused to a GPCR. The specificity of interactions was assessed through a decrease in BRET signal due to competitive displacement of the bound tracer. To further gauge the robustness of these interactions, the fold response over the control (i.e., BRETtracer/BRETcontrol) was calculated. We chose a 1.5-fold response, which translates to ≥7-fold signal over noise as the minimal threshold required to score an interaction as positive.
(§2) HiBiT-GPCR DNA constructs were diluted in 10 mM Tris pH 8 to a final concentration of 0.01 μg/μL, arrayed in 96-well plates and stored at −20 °C. For transfection, HEK293 cells were suspended in Opti-MEM (without phenol red) supplemented with 2% fetal bovine serum (Seradigm) and 100 units/mL penicillin–streptomycin (Gibco) at a final concentration of 220,000 cells/mL and dispensed into white 96-well plates at 90 μL/well. Subsequent transfections and screens were carried using an Agilent Bravo Automated Liquid Handling Platform. First, the 96-well HiBiT DNA arrays were diluted 25-fold in Opti-MEM (without serum or phenol red) to a final concentration of 0.0004 μg/μL and 20 μL of the diluted DNAs were transferred into new 96-well plates. Next, promoterless carrier DNA (1 μg/μL) was diluted 25-fold (0.04 μg/μL) and then dispensed into the diluted arrays at 20 μL/well. Following brief mixing, Viafect transfection reagent (Promega) diluted 16-fold into Opti-MEM was dispensed into the plates at 40 μL/well. After mixing by pipetting, plates were incubated for 10 min on the pipetting station deck. The DNA-transfection reagent complexes were then added to plates containing cells. To facilitate the screen, 10 μL of DNA-transfection reagent complexes were added in duplicates to the top 4 and bottom 4 rows, resulting in two identical 48-well arrays per plate. Plates with transfected cells were incubated for 18–20 h at 37 °C/5% CO2. A screen of each tracer across the entire library using two different concentrations requires duplicate plates of transfected cells. Depending on the number of tracers being screened, transfections can be scaled up using the same ratios. The next day, for each tracer, four 20× screening solutions in tracer dilution buffer (Promega) were prepared: two duplicates at final concentration of 20 μM and two duplicates at a final concentration of 2 μM. […] The four resulting solutions were diluted 4-fold in Opti-MEM without serum or phenol red to generate 5× solutions (5 µM and 0.5 µM tracer +/− 100 μM competing compound). To screen the library, a BioTek MultiFlo FX liquid dispenser was used to dispense 22.5 µL of tracer solution to the top 4 rows and 22.5 µL tracer + competing compound solution to the 4 bottom rows. Plates were briefly mixed on an orbital shaker and incubated for 1.5 h at room temperature. […] Plates were briefly mixed on an orbital shaker and incubated for 15 min to allow complementation.

ADRA2A = target: T2, ADRA2A (Homo sapiens, UniProt P08913); assay: NanoBRET screen HiBiT-ADRA2A in HEK293; type: binding
T2 construct: purchased Promega (in-house HiBiT-GPCR construct library, NanoBRET)
T2 sequence (P08913 1-465): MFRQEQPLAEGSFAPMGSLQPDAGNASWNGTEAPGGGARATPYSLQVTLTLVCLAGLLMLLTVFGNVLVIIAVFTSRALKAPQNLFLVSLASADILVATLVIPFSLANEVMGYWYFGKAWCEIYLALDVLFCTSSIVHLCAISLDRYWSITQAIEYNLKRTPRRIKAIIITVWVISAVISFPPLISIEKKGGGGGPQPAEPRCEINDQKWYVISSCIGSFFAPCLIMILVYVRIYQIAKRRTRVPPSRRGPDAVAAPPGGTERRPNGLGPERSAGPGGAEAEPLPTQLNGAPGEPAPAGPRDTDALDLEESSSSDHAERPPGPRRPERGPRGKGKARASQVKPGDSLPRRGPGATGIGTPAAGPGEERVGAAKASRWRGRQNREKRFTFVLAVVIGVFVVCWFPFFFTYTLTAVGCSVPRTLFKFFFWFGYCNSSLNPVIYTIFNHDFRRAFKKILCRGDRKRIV
Experimental: as §1, §2

T1 sequence (Q13585 whole entry): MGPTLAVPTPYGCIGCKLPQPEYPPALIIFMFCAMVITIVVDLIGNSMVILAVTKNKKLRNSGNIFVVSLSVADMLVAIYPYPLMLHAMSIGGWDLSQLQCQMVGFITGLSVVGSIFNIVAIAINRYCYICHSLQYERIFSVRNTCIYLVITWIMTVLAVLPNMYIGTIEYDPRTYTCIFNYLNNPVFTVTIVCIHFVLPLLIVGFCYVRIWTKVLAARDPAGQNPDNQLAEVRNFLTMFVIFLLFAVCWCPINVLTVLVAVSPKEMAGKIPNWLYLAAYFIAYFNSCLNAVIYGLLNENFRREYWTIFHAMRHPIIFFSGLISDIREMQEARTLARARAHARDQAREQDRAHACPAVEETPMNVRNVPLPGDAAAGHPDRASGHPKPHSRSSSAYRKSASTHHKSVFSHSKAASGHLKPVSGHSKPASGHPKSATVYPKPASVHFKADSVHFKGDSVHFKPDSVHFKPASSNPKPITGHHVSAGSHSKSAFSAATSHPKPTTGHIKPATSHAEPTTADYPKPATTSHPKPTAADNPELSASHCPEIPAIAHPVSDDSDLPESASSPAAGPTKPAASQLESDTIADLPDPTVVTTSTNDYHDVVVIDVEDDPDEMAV

O=C(CCc1ccc2n1[B-](F)(F)[N+]1=C(c3ccc[nH]3)C=CC1=C2)NCc1ccc(C(=O)NCCOCCC(=O)N[C@@H]2CC[C@@]3(O)[C@H]4Cc5ccc(O)c6c5[C@@]3(CCN4CC3CC3)[C@H]2O6)cc1 [Naltrexone-3-NB590]
NanoBRET Fold Response (GPR50; GPR50, tracer 0.1μM): 0.94
NanoBRET Fold Response (GPR50; GPR50, tracer 1μM): 0.97
NanoBRET Fold Response (ADRA2A; ADRA2A, tracer 0.1μM): 1.12
NanoBRET Fold Response (ADRA2A; ADRA2A, tracer 1μM): 0.92

O=C(CCOCCOCCOCCOCCNC(=O)CCc1ccc2n1[B-](F)(F)[N+]1=C(c3ccc[nH]3)C=CC1=C2)NCCCN1CCN(C2=Nc3cc(Cl)ccc3Nc3ccccc32)CC1 [Clozapine-a-2-NB590]
NanoBRET Fold Response (GPR50; GPR50, 0.1μM tracer): 1.04
NanoBRET Fold Response (GPR50; GPR50, 1μM tracer): 1.00
NanoBRET Fold Response (ADRA2A; ADRA2A, 0.1μM tracer): 1.27
NanoBRET Fold Response (ADRA2A; ADRA2A, 1μM tracer): 1.78

CCOC(=O)c1cc(C#N)c(N2CCC(C(=O)NS(=O)(=O)Cc3ccccc3/C=C/C(=O)NCCNC(=O)CCc3ccc4n3[B-](F)(F)[N+]3=C(c5ccc[nH]5)C=CC3=C4)CC2)nc1C [AZD1283-1-NB590]
NanoBRET Fold Response (GPR50; GPR50, 0.1μM): 0.97
NanoBRET Fold Response (GPR50; GPR50, 1μM): 0.97
NanoBRET Fold Response (ADRA2A; ADRA2A, 0.1μM): 1.04
NanoBRET Fold Response (ADRA2A; ADRA2A, 1μM): 1.13

COc1ccc2[nH]c(-c3ccc(CNC(=O)CCOCCOCCOCCOCCNC(=O)CCc4ccc5n4[B-](F)(F)[N+]4=C(c6ccc[nH]6)C=CC4=C5)cc3)c(CCNC(C)=O)c2n1 [AzomelatoninICO9-2-NB590]
NanoBRET Fold Response (GPR50; 0.1μM tracer): 0.96
NanoBRET Fold Response (GPR50; 1μM tracer): 1.01
NanoBRET Fold Response (ADRA2A; 0.1μM tracer): 1.01
NanoBRET Fold Response (ADRA2A; 1μM tracer): 1.06

CCCn1c(=O)c2[nH]c(-c3ccc(OCC(=O)NCCNC(=O)CCOCCNC(=O)c4ccc(CNC(=O)CCc5ccc6n5[B-](F)(F)[N+]5=C(c7ccc[nH]7)C=CC5=C6)cc4)cc3)nc2n(CCC)c1=O [XAC-3-NB590]
NanoBRET Fold Response (GPR50; GPR50, tracer 0.1μM): 1.05
NanoBRET Fold Response (GPR50; GPR50, tracer 1μM): 1.04
NanoBRET Fold Response (ADRA2A; ADRA2A, tracer 0.1μM): 0.97
NanoBRET Fold Response (ADRA2A; ADRA2A, tracer 1μM): 1.11

COc1ccccc1N1CCN(CCCCN2C(=O)c3ccc(CNC(=O)CCOCCNC(=O)c4ccc(CNC(=O)CCc5ccc6n5[B-](F)(F)[N+]5=C(c7ccc[nH]7)C=CC5=C6)cc4)cc3C2=O)CC1 [NAN-190-3-NB590]
NanoBRET Fold Response (GPR50; GPR50, tracer 0.1μM): 0.97
NanoBRET Fold Response (GPR50; GPR50, tracer 1μM): 0.89
NanoBRET Fold Response (ADRA2A; ADRA2A, tracer 0.1μM): 2.11
NanoBRET Fold Response (ADRA2A; ADRA2A, tracer 1μM): 2.92

CN(CCC=C1c2ccccc2CCc2ccccc21)C(=O)CCOCCOCCOCCOCCNC(=O)CCc1ccc2n1[B-](F)(F)[N+]1=C(c3ccc[nH]3)C=CC1=C2 [Amitriptyline-e-2-NB590]
NanoBRET Fold Response (ADRA2A; tracer at 1μM): 1.09

O=C(CCc1ccc2n1[B-](F)(F)[N+]1=C(c3ccc[nH]3)C=CC1=C2)NCc1ccc(C(=O)NCCOCCOCCNCC(O)COc2cccc3ccccc23)cc1 (centres unmarked) [Propranolol-3-NB590]
NanoBRET Fold Response (GPR50; GPR50, 0.1μM): 1.01
NanoBRET Fold Response (GPR50; GPR50, 1μM): 1.05
NanoBRET Fold Response (ADRA2A; ADRA2A, 0.1μM): 1.04
NanoBRET Fold Response (ADRA2A; ADRA2A, 1μM): 1.06

N#CN/C(=N\CCNC(=O)c1ccc(N)cc1)NCCCOc1cccc(CN2CCCCC2)c1 [Aminopotentidine (unmodified)]
NanoBRET Fold Response (ADRA2A; ADRA2A, other tracers/Aminopotentidine (unmodified), 0.1μM): 1.01
NanoBRET Fold Response (ADRA2A; ADRA2A, other tracers/Aminopotentidine (unmodified), 1μM): 1.67

CN1CCN(C2=Nc3cc(Cl)ccc3Nc3ccc(CNC(=O)CCOCCOCCOCCOCCNC(=O)CCc4ccc5n4[B-](F)(F)[N+]4=C(c6ccc[nH]6)C=CC4=C5)cc32)CC1 [Clozapine-b-2-NB590]
NanoBRET Fold Response (GPR50; GPR50, 0.1μM tracer): 0.98
NanoBRET Fold Response (GPR50; GPR50, 1μM tracer): 0.97

CN(C)CCC=C1c2ccccc2CCc2ccc(C(=O)NCCNC(=O)CCOCCOCCOCCOCCNC(=O)CCc3ccc4n3[B-](F)(F)[N+]3=C(c5ccc[nH]5)C=CC3=C4)cc21 [Amitriptyline-a-2-NB590]
NanoBRET Fold Response (ADRA2A; tracer at 0.1μM): 1.03
NanoBRET Fold Response (ADRA2A; tracer at 1μM): 1.12
